Reference: doi:10.1101/2023.11.24.568596v1 (biorxiv, 2023)
Blank lines part the entries; values can stand above or below the compound they belong to.

What was measured:
Details in all cases: binder
PAK1 = PAK1 (Homo sapiens, UniProt Q13153)
DCAMKL1 = target: T1, DCAMKL1 (Homo sapiens, UniProt O15075)
T1 sequence (O15075 1-740): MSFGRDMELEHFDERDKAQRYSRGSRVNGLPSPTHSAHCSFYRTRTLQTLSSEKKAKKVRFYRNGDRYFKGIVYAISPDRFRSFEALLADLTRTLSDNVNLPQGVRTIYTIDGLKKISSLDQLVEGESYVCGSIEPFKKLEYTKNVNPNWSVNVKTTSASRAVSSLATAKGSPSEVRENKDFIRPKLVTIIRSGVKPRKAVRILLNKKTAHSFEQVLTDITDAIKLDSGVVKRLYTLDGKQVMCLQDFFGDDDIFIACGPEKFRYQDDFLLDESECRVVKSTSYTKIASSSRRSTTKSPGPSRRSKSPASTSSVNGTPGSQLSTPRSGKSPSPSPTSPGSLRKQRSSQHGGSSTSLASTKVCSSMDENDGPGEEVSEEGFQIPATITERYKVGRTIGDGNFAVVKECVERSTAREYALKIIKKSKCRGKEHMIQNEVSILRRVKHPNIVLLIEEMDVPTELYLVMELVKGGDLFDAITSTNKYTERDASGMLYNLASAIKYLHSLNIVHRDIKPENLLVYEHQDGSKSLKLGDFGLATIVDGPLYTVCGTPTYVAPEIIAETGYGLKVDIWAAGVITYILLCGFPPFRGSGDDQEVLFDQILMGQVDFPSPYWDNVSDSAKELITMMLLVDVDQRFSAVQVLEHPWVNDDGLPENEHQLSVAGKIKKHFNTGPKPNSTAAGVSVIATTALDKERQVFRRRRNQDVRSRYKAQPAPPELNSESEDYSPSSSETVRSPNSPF

CLK3 = CLK3 (Homo sapiens, UniProt P49761)
MARK4 = target: T2, MARK4 (Homo sapiens, UniProt Q96L34)
T2 sequence (Q96L34 1-752): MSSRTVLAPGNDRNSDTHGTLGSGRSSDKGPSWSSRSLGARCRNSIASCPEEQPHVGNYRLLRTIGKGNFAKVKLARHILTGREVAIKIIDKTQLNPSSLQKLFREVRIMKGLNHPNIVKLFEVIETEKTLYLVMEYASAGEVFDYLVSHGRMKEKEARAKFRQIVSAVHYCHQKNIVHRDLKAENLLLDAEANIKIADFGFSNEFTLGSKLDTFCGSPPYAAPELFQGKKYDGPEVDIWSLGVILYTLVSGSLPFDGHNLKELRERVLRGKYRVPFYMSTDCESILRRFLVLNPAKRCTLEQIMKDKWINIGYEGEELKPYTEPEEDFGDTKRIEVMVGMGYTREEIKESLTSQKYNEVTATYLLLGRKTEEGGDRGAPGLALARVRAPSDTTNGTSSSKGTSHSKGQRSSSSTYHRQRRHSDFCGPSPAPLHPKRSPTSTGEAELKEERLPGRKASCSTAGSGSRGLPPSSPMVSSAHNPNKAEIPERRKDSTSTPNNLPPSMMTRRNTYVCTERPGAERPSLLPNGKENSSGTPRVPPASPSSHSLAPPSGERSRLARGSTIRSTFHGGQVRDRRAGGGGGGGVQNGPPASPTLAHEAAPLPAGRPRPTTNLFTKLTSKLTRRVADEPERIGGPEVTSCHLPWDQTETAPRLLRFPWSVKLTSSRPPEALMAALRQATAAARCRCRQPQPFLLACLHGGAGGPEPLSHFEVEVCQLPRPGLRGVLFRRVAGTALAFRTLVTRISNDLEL

EphA4 = EphA4 (Homo sapiens, UniProt P54764)
JNK1 = JNK1 (Homo sapiens, UniProt P45983)
EphA7 = EphA7 (Homo sapiens, UniProt Q15375)
MST4 = MST4 (Homo sapiens, UniProt Q9P289)
CDK2 = CDK2 (Homo sapiens, UniProt P24941)
PHKG2 = target: T3, PHKG2 (Homo sapiens, UniProt P15735)
T3 sequence (P15735 1-406): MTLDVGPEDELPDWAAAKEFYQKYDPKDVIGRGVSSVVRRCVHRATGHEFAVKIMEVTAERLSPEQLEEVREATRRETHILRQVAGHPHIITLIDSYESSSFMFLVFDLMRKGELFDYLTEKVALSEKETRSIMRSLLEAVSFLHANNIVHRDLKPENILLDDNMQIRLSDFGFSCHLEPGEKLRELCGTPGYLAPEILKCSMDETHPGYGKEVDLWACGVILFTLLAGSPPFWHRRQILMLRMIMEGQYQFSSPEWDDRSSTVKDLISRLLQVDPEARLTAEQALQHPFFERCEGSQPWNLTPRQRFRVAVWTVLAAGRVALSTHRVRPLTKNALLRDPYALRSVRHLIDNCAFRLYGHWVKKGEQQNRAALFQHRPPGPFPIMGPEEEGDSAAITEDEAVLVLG

MAPKAPK2 = MAPKAPK2 (Homo sapiens, UniProt P49137)
Chain of MAPKAPK2 (P49137 whole entry): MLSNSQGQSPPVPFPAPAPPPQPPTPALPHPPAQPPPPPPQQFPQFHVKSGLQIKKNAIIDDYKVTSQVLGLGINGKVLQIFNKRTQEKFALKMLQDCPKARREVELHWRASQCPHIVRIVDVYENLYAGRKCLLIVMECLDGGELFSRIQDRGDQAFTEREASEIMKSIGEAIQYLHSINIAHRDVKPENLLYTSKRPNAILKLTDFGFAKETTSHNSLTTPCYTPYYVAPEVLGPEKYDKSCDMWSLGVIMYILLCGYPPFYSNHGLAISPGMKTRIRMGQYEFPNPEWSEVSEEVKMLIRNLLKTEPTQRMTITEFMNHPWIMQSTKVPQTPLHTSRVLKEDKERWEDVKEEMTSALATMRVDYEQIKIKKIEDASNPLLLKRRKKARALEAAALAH

Chain of PAK1 (Q13153 whole entry): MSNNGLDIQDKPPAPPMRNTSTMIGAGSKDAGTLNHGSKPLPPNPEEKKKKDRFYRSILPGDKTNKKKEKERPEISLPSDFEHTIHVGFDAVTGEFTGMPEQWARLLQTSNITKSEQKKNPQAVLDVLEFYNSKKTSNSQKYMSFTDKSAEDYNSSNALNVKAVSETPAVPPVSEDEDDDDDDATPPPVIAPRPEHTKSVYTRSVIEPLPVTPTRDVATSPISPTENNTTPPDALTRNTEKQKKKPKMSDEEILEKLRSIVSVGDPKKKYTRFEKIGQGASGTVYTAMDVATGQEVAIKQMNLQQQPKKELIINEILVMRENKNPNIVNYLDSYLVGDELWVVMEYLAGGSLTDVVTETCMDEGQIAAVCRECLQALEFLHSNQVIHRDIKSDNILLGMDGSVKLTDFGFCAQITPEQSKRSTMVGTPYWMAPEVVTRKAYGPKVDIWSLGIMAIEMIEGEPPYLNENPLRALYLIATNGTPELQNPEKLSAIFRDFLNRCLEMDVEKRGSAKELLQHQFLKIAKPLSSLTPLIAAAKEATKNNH
Chain of EphA7 (Q15375 whole entry): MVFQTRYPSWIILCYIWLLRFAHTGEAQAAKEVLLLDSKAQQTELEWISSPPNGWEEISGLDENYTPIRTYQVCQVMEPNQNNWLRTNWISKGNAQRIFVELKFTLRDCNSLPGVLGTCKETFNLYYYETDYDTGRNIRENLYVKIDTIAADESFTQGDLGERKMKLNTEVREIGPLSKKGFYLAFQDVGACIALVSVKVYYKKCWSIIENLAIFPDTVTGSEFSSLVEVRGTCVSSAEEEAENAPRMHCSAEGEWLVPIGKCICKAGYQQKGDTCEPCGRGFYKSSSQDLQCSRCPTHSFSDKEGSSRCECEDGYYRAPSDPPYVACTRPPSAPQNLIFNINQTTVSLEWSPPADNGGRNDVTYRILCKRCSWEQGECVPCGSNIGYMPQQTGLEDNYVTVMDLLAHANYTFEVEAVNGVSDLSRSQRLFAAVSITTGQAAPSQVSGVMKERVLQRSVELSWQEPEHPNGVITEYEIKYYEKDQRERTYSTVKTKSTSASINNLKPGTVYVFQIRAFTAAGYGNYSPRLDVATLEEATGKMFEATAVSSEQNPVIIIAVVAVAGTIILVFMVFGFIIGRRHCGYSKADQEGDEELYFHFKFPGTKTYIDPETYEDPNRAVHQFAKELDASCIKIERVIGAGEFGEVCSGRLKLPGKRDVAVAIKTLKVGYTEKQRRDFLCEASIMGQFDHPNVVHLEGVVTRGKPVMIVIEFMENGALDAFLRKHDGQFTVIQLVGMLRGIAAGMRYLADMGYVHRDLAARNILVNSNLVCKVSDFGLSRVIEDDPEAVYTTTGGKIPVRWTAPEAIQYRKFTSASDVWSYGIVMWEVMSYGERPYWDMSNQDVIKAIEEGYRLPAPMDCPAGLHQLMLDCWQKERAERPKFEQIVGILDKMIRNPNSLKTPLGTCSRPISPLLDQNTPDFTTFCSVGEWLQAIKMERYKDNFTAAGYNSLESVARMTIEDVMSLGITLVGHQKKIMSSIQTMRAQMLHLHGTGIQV
Chain of JNK1 (P45983 whole entry): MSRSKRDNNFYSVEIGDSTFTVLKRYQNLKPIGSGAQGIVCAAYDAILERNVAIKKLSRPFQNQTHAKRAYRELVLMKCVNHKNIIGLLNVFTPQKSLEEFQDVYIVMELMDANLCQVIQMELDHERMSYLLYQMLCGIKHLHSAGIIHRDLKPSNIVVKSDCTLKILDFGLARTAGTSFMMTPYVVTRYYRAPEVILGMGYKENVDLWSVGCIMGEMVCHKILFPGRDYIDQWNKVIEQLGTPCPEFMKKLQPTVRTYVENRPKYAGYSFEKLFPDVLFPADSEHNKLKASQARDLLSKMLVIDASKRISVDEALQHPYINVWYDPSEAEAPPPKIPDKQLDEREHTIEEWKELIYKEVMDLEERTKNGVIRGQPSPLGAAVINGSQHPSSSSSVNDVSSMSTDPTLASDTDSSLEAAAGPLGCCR
Chain of CLK3 (P49761 whole entry): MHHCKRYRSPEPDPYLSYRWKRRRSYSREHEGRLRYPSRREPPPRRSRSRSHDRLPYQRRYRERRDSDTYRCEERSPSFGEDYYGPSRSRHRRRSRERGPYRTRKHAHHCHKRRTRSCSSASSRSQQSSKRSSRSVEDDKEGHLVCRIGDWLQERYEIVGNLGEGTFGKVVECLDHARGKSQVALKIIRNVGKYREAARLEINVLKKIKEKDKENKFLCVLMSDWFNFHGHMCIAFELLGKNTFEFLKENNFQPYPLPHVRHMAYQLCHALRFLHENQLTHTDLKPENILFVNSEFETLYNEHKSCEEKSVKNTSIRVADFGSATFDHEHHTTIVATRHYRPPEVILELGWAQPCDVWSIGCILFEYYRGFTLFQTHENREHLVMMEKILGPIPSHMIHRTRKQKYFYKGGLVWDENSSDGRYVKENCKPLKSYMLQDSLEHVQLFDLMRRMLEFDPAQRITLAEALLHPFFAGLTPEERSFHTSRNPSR
Chain of MST4 (Q9P289 whole entry): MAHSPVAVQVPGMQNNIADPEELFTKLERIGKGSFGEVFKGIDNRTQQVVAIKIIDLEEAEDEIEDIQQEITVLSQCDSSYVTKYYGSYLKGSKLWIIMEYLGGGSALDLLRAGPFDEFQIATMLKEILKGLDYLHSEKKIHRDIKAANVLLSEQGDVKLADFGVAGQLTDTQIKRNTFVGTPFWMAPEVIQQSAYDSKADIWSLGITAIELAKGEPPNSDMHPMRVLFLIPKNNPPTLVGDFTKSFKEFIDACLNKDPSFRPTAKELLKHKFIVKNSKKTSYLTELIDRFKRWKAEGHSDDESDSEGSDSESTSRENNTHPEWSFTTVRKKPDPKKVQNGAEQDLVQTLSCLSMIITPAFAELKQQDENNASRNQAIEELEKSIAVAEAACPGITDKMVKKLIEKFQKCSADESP
Chain of EphA4 (P54764 whole entry): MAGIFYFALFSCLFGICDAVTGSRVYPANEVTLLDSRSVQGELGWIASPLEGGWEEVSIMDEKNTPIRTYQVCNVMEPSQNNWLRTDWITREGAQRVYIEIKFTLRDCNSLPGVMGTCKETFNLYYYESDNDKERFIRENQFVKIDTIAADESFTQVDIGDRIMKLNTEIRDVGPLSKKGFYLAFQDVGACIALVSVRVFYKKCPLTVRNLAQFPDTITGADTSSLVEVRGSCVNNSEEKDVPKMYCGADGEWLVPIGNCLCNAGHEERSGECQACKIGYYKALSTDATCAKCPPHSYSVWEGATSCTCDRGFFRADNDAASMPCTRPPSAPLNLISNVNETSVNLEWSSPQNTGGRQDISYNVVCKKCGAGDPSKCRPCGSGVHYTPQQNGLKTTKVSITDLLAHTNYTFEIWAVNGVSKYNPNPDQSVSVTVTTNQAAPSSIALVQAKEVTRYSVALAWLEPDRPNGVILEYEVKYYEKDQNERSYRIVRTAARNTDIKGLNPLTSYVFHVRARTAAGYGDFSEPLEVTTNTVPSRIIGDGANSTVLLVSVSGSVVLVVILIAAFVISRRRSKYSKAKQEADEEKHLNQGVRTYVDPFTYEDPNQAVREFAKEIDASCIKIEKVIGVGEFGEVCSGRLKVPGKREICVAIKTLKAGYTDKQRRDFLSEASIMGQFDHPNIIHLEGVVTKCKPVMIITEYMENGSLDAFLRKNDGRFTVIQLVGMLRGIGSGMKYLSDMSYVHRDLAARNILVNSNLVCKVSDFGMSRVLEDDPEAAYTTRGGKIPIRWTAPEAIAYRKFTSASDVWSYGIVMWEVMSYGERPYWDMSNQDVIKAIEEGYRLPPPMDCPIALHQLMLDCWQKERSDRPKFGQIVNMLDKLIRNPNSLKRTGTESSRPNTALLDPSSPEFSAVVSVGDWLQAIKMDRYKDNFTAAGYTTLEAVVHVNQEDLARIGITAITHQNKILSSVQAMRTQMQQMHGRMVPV

ΔTm 32 (PAK1): 10.4 °C | ΔTm 32 (DCAMKL1): 1.4 °C | ΔTm 32 (CLK3): 0.1 °C | ΔTm 32 (MARK4): 9.9 °C | ΔTm 32 (EphA4): 4.6 °C | ΔTm 32 (JNK1): 1.9 °C | ΔTm 32 (EphA7): 5.4 °C | ΔTm 32 (MST4): 15.5 °C | ΔTm 32 (CDK2): 5.3 °C | ΔTm 32 (PHKG2): 6.4 °C | ΔTm 32 (MAPKAPK2): -0.1 °C
Structure (SMILES): Cc1cccc(-c2ccc(-c3cc4cnc(Nc5ccc(C)c(O)c5)nc4n(CCCCN)c3=O)c(Cl)c2)n1 [compound 32, 8-(4-Aminobutyl)-6-(2-chloro-4-(6-methylpyridin-2-yl)phenyl)-2-((3-hydroxy-4-methylphenyl)amino)pyrido[2,3-d]pyrimidin-7(8H)-one]

ΔTm 31 (PAK1): 10.6 °C | ΔTm 31 (DCAMKL1): 1.1 °C | ΔTm 31 (CLK3): -0.5 °C | ΔTm 31 (MARK4): 10.4 °C | ΔTm 31 (EphA4): 4.4 °C | ΔTm 31 (JNK1): 2.7 °C | ΔTm 31 (EphA7): 5.1 °C | ΔTm 31 (MST4): 14.7 °C | ΔTm 31 (CDK2): 6.7 °C | ΔTm 31 (PHKG2): 6.4 °C | ΔTm 31 (MAPKAPK2): -0.1 °C
Structure (SMILES): Cc1cccc(-c2ccc(-c3cc4cnc(Nc5ccc(O)cc5)nc4n(CCCCN)c3=O)c(Cl)c2)n1 [compound 31, 8-(4-Aminobutyl)-6-(2-chloro-4-(6-methylpyridin-2-yl)phenyl)-2-((4-hydroxyphenyl)amino) pyrido[2,3-d]pyrimidin-7(8H)-one]

More lines, now with the values behind:

Structure (SMILES): Cc1cccc(-c2ccc(-c3cc4cnc(NCCCN5CCCC5=O)nc4n(CCCCN)c3=O)c(Cl)c2)n1 [compound 27, MR30]
ΔTm MR30 (27) (PAK1): 4.6 °C | ΔTm MR30 (27) (DCAMKL1): -1.8 °C | ΔTm MR30 (27) (CLK3): -0.3 °C | ΔTm MR30 (27) (MARK4): 3.8 °C | ΔTm MR30 (27) (EphA4): 2.0 °C | ΔTm MR30 (27) (JNK1): 0.4 °C | ΔTm MR30 (27) (EphA7): 1.7 °C | ΔTm MR30 (27) (MST4): 7.9 °C | ΔTm MR30 (27) (CDK2): 1.4 °C | ΔTm MR30 (27) (PHKG2): 1.2 °C | ΔTm MR30 (27) (MAPKAPK2): -0.3 °C

Structure (SMILES): Cc1cccc(-c2ccc(-c3cc4cnc(Nc5cc(C(F)(F)F)ccc5C)nc4n(CCCCN)c3=O)c(Cl)c2)n1 [compound 28, 8-(4-Aminobutyl)-6-(2-chloro-4-(6-methylpyridin-2-yl)phenyl)-2-((2-methyl-5-(trifluoromethyl)phenyl)amino)pyrido[2,3-d]pyrimidin-7(8H)-one]
ΔTm 28 (PAK1): 6.0 °C | ΔTm 28 (DCAMKL1): 0.9 °C | ΔTm 28 (CLK3): 0.0 °C | ΔTm 28 (MARK4): 2.2 °C | ΔTm 28 (EphA4): 3.4 °C | ΔTm 28 (JNK1): 2.8 °C | ΔTm 28 (EphA7): 4.2 °C | ΔTm 28 (MST4): 8.8 °C | ΔTm 28 (CDK2): -0.2 °C | ΔTm 28 (PHKG2): 2.4 °C | ΔTm 28 (MAPKAPK2): -0.2 °C

Structure (SMILES): Cc1cccc(-c2ccc(-c3cc4cnc(Nc5ccc(CCCO)cc5)nc4n(CCCCN)c3=O)c(Cl)c2)n1 [compound 30, 8-(4-Aminobutyl)-6-(2-chloro-4-(6-methylpyridin-2-yl)phenyl)-2-((4-(3-hydroxypropyl)phenyl)amino)pyrido[2,3-d]pyrimidin-7(8H)-one]
ΔTm 30 (PAK1): 10.7 °C | ΔTm 30 (DCAMKL1): 2.0 °C | ΔTm 30 (CLK3): -0.2 °C | ΔTm 30 (MARK4): 9.5 °C | ΔTm 30 (EphA4): 3.5 °C | ΔTm 30 (JNK1): 2.8 °C | ΔTm 30 (EphA7): 6.4 °C | ΔTm 30 (MST4): 15.3 °C | ΔTm 30 (CDK2): 4.8 °C | ΔTm 30 (PHKG2): 6.7 °C | ΔTm 30 (MAPKAPK2): -0.3 °C

Structure (SMILES): Cc1cccc(-c2ccc(-c3cc4cnc(NCCCN5CCNCC5)nc4n(CCCCN)c3=O)c(Cl)c2)n1 [compound 29, 8-(4-Aminobutyl)-6-(2-chloro-4-(6-methylpyridin-2-yl)phenyl)-2-((3-(piperazin-1-yl)propyl)amino)pyrido[2,3-d]pyrimidin-7(8H)-one]
ΔTm 29 (PAK1): 7.1 °C | ΔTm 29 (DCAMKL1): -1.7 °C | ΔTm 29 (CLK3): 0.0 °C | ΔTm 29 (MARK4): 4.8 °C | ΔTm 29 (EphA4): 2.1 °C | ΔTm 29 (JNK1): 0.7 °C | ΔTm 29 (EphA7): 4.1 °C | ΔTm 29 (MST4): 10.2 °C | ΔTm 29 (CDK2): 0.9 °C | ΔTm 29 (PHKG2): 2.2 °C | ΔTm 29 (MAPKAPK2): -0.2 °C
